What all share (format): cell-based
The subject of assay [1] is Aβ-38. The experiment in a line: MSD Human (6E10) Ab 3-PLEX elisa, conditioned media of 2B7 cells: Aβ-38. The note with it: for IC50: Aβ-38 (superscript a). The method, boiled down:
(§1)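 We dose confluent 2B7 cells for 5 hours at 37° C, keeping DMSO at 1%. Diluted media then incubates on antibody-coated plates either overnight at 4 degrees C or 2 hours at room temp.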

Assay [2] concerns Aβ-42. The experiment in a line: MSD Human (6E10) Ab 3-PLEX elisa, conditioned media of 2B7 cells: Aβ-42. The note with it: for IC50: Aβ-42 (superscript c). The method, boiled down:
as §1

Assay [3] relates to Aβ-40. The experiment in a line: MSD Human (6E10) Ab 3-PLEX elisa, conditioned media of 2B7 cells: Aβ-40. The note with it: for IC50: Aβ-40 (superscript b). A digest of the protocol: as §1
[4] abbreviates: Homo sapiens, read-out: 50% reduction value.
The mark [5] stands for this setting: Homo sapiens, read-out: IC50 range.

Read-outs that look alike come from different tables or passages of the source. Where only a bound is given, the exact number is not on record here.

For orientation: inhibition means the share of the control response that was lost under treatment. Lower therefore signals a response near the control.

Take `CC(C)C(=O)N1CCO[C@@H](O[C@H]2CC[C@]34C[C@]35CC[C@]3(C)[C@@H]6C(OC([C@H](O)C(C)C)C[C@H]6C)[C@H](O)[C@@]3(C)C5CC[C@H]4C2(C)C)C1` (stereo partly shown): the IC50 in assay [1] (setting [4]) is 1000 to 10000 nM; in assay [1] (setting [5]), 1000 to 10000 nM; in assay [2] (setting [4]), 1000 to 10000 nM; in assay [3] (setting [4]), above 10 µM.

For `CC(=O)O[C@H](C(C)C)C1C[C@@H](C)[C@H]2C(O1)[C@H](O)[C@@]1(C)C3CC[C@H]4C(C)(C)[C@@H](O[C@H]5CN(C(=O)C(C)C)CCO5)CC[C@@]45C[C@@]35CC[C@]21C` (stereo partly shown), the IC50 is below 1000 nM in assay [1] (setting [4]); below 1000 nM in assay [1] (setting [5]); below 1000 nM in assay [2] (setting [4]); below 1000 nM in assay [2] (setting [5]); below 1 µM in assay [3] (setting [4]).

Regarding `CCO[C@@H]([C@H]1C[C@@H](C)[C@H]2[C@H](O1)[C@H](O)[C@@]1(C)[C@@H]3CC[C@H]4C(C)(C)[C@@H](OC5CN(C(=O)C(C)C)CCO5)CC[C@@]45C[C@@]35CC[C@]21C)C(C)(C)O` (stereo partly shown), the IC50 in assay [1] (setting [4]) is below 1000 nM; in assay [1] (setting [5]), below 1000 nM; in assay [2] (setting [4]), below 1000 nM; in assay [2] (setting [5]) it was below 1000 nM; in assay [3] (setting [4]), 1 to 10 µM; in assay [3] (setting [5]), 1 to 10 µM.

As for `C[C@@H]1C[C@](C)(CO)OC2[C@H]1[C@@]1(C)CC[C@@]34C[C@@]35CC[C@H](O)C(C)(C)[C@@H]5CCC4[C@]1(C)[C@H]2O` (stereo partly shown), the inhibition at 20 µM was 25 to 75% in assay [1] (Homo sapiens, Aβ-38, 20 μM); below 25% in assay [2] (Homo sapiens, Aβ-42, 20 μM); below 25% in assay [3] (Homo sapiens, Aβ-40, 20 μM).

For `CC(C)[C@@H](OC(=O)N1CCC1)C1C[C@@H](C)[C@H]2C(O1)[C@H](O)[C@@]1(C)C3CC[C@H]4C(C)(C)C(OC(=O)N5CC(C(=O)O)C5)CC[C@@]45C[C@@]35CC[C@]21C` (stereo partly shown), the IC50 was below 1000 nM in assay [1] (setting [4]), below 1000 nM in assay [2] (setting [4]) and 1 to 10 µM in assay [3] (setting [4]).

With `C[C@@H]1CC([C@H](Oc2ncccn2)C(C)(C)O)OC2C1[C@@]1(C)CC[C@@]34C[C@@]35CCC(OC(=O)N3CCOCC3)C(C)(C)[C@@H]5CCC4[C@]1(C)[C@H]2O` (stereo partly shown), the inhibition at 20 µM in assay [1] (Homo sapiens, Aβ-38, 20 μM) lay within 25 to 75%. Further, the IC50 is above 10000 nM in assay [2] (setting [4]) and above 10 µM in assay [3] (setting [5]).

For the molecule `CCO[C@@H]([C@H]1C[C@@H](C)[C@H]2[C@H](O1)[C@H](O)[C@@]1(C)[C@@H]3CC[C@H]4C(C)(C)[C@@H](OC(=O)NC5CN(C)C5)CC[C@@]45C[C@@]35CC[C@]21C)C(C)(C)O`, the IC50 in assay [1] (setting [4]) was below 1000 nM; in assay [1] (setting [5]) it was below 1000 nM; in assay [2] (setting [4]), below 1000 nM; in assay [2] (setting [5]) it was below 1000 nM; in assay [3] (setting [4]), below 1 µM; in assay [3] (setting [5]) it was 1 to 10 µM.

Regarding `C[C@@H]1CC(C(O)C(C)(C)C)OC2[C@H]1[C@@]1(C)CC[C@@]34C[C@@]35CC[C@H](O)C(C)(C)[C@@H]5CCC4[C@]1(C)[C@H]2O` (stereo partly shown), the results for the IC50 in assay [1] (setting [4]) and in assay [3] (setting [4]) were 1000 to 10000 nM and above 10 µM, respectively. In assay [2] (Homo sapiens, Aβ-42, 20 μM), this molecule came in with an inhibition at 20 µM of 25 to 75%.

For the molecule `CCO[C@H](C(C)C)C1C[C@@H](C)[C@H]2C(O1)[C@H](O)[C@@]1(C)[C@@H]3CC[C@H]4C(C)(C)C(O[C@H]5CNCCO5)CC[C@@]45C[C@@]35CC[C@]21C` (stereo partly shown), the IC50 lay in the range of 1000 to 10000 nM in assay [1] (setting [4]); 1000 to 10000 nM in assay [2] (setting [4]); 1000 to 10000 nM in assay [2] (setting [5]); 1 to 10 µM in assay [3] (setting [4]); 1 to 10 µM in assay [3] (setting [5]).

On to `CC(C)[C@@H](OC(=O)N1CCC1)C1C[C@@H](C)[C@H]2C(O1)[C@H](O)[C@@]1(C)C3CC[C@H]4C(C)(C)C(OC(=O)N5CCn6c(nnc6C(F)(F)F)C5)CC[C@@]45C[C@@]35CC[C@]21C` (stereo partly shown), for which the IC50 in assay [1] (setting [4]) and in assay [2] (setting [4]) was below 1000 nM throughout. This molecule yielded an inhibition at 20 µM in assay [3] (Homo sapiens, Aβ-40, 20 μM) of 25 to 75%.

Regarding `CCO[C@@H]([C@H]1C[C@@H](C)[C@H]2[C@H](O1)[C@H](O)[C@@]1(C)C3CC[C@H]4C(C)(C)C(OC(=O)NC5COC5)CC[C@@]45C[C@@]35CC[C@]21C)C(C)(C)O` (stereo partly shown), the IC50 was below 1000 nM in assay [1] (setting [4]), below 1000 nM in assay [2] (setting [4]), below 1000 nM in assay [2] (setting [5]) and 1 to 10 µM in assay [3] (setting [4]).

In the case of `CNC(=O)O[C@@H]([C@H]1C[C@@H](C)[C@H]2[C@H](O1)[C@H](O)[C@@]1(C)C3CC[C@H]4C(C)(C)[C@@H](O)CC[C@@]45C[C@@]35CC[C@]21C)C(C)(C)O` (stereo partly shown), the inhibition at 20 µM in assay [1] (Homo sapiens, Aβ-38, 20 μM) lay in the range of 25 to 75%; in assay [2] (Homo sapiens, Aβ-42, 20 μM) it was 25 to 75%; in assay [3] (Homo sapiens, Aβ-40, 20 μM), 25 to 75%.

For the molecule `C=C(C)CO[C@@H](C1C[C@@H](C)[C@H]2C(O1)[C@H](O)[C@@]1(C)C3CC[C@H]4C(C)(C)C(O[C@H]5CN(C6COC6)CCO5)CC[C@@]45C[C@@]35CC[C@]21C)C(C)(C)O` (stereo partly shown), the IC50 in assay [1] (setting [4]) is below 1000 nM; in assay [1] (setting [5]) it was below 1000 nM; in assay [2] (setting [4]) it was below 1000 nM; in assay [2] (setting [5]), below 1000 nM; in assay [3] (setting [4]), 1 to 10 µM.

In the case of `CO[C@@H]([C@H]1C[C@@H](C)[C@H]2[C@H](O1)[C@H](O)[C@@]1(C)[C@@H]3CC[C@H]4C(C)(C)[C@@H](OC5CN(C(=O)C(C)C)CCO5)CC[C@@]45C[C@@]35CC[C@]21C)C(C)(C)O` (stereo partly shown), the IC50 in assay [1] (setting [4]) is below 1000 nM; in assay [1] (setting [5]) it was below 1000 nM; in assay [2] (setting [4]) it was below 1000 nM; in assay [2] (setting [5]) it was below 1000 nM; in assay [3] (setting [4]), 1 to 10 µM.

On to `C[C@@H]1CC(COC(=O)C(C)(C)C)OC2[C@H]1[C@@]1(C)CC[C@@]34C[C@@]35CC[C@H](O[C@H]3CN(C6COC6)CCO3)C(C)(C)[C@@H]5CCC4[C@]1(C)[C@H]2O` (stereo partly shown), for which the IC50 in assay [1] (setting [4]) is 1000 to 10000 nM; in assay [2] (setting [4]), above 10000 nM; in assay [3] (setting [4]), above 10 µM.

Consider `C[C@@H]1CC([C@@H]2OCOC2(C)C)OC2[C@H]1[C@@]1(C)CC[C@@]34C[C@@]35CCC(O[C@H]3CN(C6COC6)CCO3)C(C)(C)[C@@H]5CCC4[C@]1(C)[C@H]2O` (stereo partly shown), for which the IC50 in assay [1] (setting [4]) was 1000 to 10000 nM; in assay [2] (setting [4]) it was above 10000 nM. In addition, the inhibition at 20 µM in assay [3] (Homo sapiens, Aβ-40, 20 μM) was in the range of 25 to 75%.

On to `CCO[C@@H](C1C[C@@H](C)[C@H]2C(O1)[C@H](O)[C@@]1(C)C3CC[C@H]4C(C)(C)C(OC5CN(Cc6ccccc6)CCO5)CC[C@@]45C[C@@]35CC[C@]21C)C(C)(C)O` (stereo partly shown) [drawing 1307], for which the figures for the IC50 in assay [1] (read-out: IC50 range), in assay [2] (read-out: IC50 range) and in assay [3] (read-out: 50% reduction value) were 1000 to 10000 nM, 1000 to 10000 nM and 1 to 10 µM, respectively.

In the case of `CC[S+]([O-])[C@@H](C1C[C@@H](C)[C@H]2C(O1)[C@H](O)[C@@]1(C)C3CC[C@H]4C(C)(C)C(O[C@H]5CN(C6COC6)CCO5)CC[C@@]45C[C@@]35CC[C@]21C)C(C)(C)O` (stereo partly shown), in assay [1] (setting [4]), the IC50 was in the range of 1000 to 10000 nM. In addition, the inhibition at 20 µM in assay [2] (Homo sapiens, Aβ-42, 20 μM) lay in the range of 25 to 75%; in assay [3] (Homo sapiens, Aβ-40, 20 μM) it was 25 to 75%.

`C[C@@H]1CC(CN(C)[C@@H](C)C(=O)O)OC2[C@H]1[C@@]1(C)CC[C@@]34C[C@@]35CC[C@H](O[C@H]3CN(C(=O)CC6CC6)CCO3)C(C)(C)[C@@H]5CCC4[C@]1(C)[C@H]2O` (stereo partly shown) [drawing 1155]: the IC50 in assay [1] (setting [5]) was below 1000 nM; in assay [2] (setting [5]), 1000 to 10000 nM. Also, the inhibition at 100 µM in assay [3] (Homo sapiens, Aβ-40, 100 μM) was in the range of 25 to 75%.

Take `CCC1CC(C)C2C(O1)C(O)C1(C)C3CCC4C(C)(C)C(O)CCC45CC35CCC21C` (stereo not shown): the “% Inh. (range)” value in assay [1] (Aβ-38, 20 μM) is “E (% inhibition of 25-75%)”; in assay [2] (Aβ-42, 20 μM), “F (% inhibition of <25%)”; in assay [3] (Aβ-40, 20 μM), “E (% inhibition of 25-75%)”.

Regarding `CCO[C@@H]([C@H]1C[C@@H](C)[C@H]2[C@H](O1)[C@H](O)[C@@]1(C)[C@@H]3CC[C@H]4C(C)(C)[C@@H](OC(=O)N5CC(C(=O)O)C5)CC[C@@]45C[C@@]35CC[C@]21C)C(C)(C)O`, the IC50 in assay [1] (setting [4]) is below 1000 nM; in assay [1] (setting [5]) it was below 1000 nM; in assay [2] (setting [4]) it was below 1000 nM; in assay [2] (setting [5]), below 1000 nM; in assay [3] (setting [4]), 1 to 10 µM; in assay [3] (setting [5]) it was 1 to 10 µM.

`CCO[C@@H](C1C[C@@H](C)[C@H]2C(O1)[C@H](O)[C@@]1(C)C3CC[C@H]4C(C)(C)C(OC(=O)NC5CCNC5=O)CC[C@@]45C[C@@]35CC[C@]21C)C(C)(C)O` (stereo partly shown) [drawing 1290]: the IC50 in assay [1] (read-out: 50% reduction value) was below 1000 nM; in assay [1] (setting [5]), below 1000 nM; in assay [2] (read-out: 50% reduction value), below 1000 nM; in assay [2] (read-out: IC50 range), below 1000 nM; in assay [3] (read-out: 50% reduction value), 1 to 10 µM; in assay [3] (read-out: IC50 range), above 10 µM.
